± gives the standard deviation of the averaged measurements.
How the values were obtained:
Details in all cases: 72 h
[1] = system: LAMA-84; assay: cell viability (% survival relative to DMSO control, bortezomib = 0%); higher = less cytotoxic
Procedure, shortened: (§1)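 Fifteen myeloid leukaemia cell lines (10 AML, 5 CML) were seeded at a density titrated to the linear growth range. They went into 384-well plates with compounds pre-printed at 1, 10, 100, 1000 or 10000 nM in duplicate. After 72 h at 37 °C with 5% CO2, viability was read by CellTiter-Glo luminescence. Values are percent survival, with vehicle set to 100% and a 10 µM positive control to 0%, averaged over the duplicates.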

[2] = system: MOLM-13; assay: as above
Procedure, shortened: as §1

[3] = system: K-562; assay: as above
Procedure, shortened: as §1

[4] = system: SHI-1; assay: as above
Procedure, shortened: as §1

[5] = system: HEL; assay: as above
Procedure, shortened: as §1

[6] = system: MV4-11; assay: as above
Procedure, shortened: as §1

[7] = system: KCL-22; assay: as above
Procedure, shortened: as §1

[8] = system: NOMO-1; assay: as above
Procedure, shortened: as §1

[9] = system: BV-173; assay: as above
Procedure, shortened: as §1

[10] = system: Mono-Mac-6; assay: as above
Procedure, shortened: as §1

[11] = system: ML-2; assay: as above
Procedure, shortened: as §1

[12] = system: KU-812; assay: as above
Procedure, shortened: as §1

[13] = system: HL-60; assay: as above
Procedure, shortened: as §1

[14] = system: KG-1; assay: as above
Procedure, shortened: as §1

[15] = system: THP-1; assay: as above
Procedure, shortened: as §1

[16] = system: LAMA-84
Procedure, shortened: (§2)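 Fifteen myeloid leukaemia lines in RPMI 1640 were treated for 72 h at 37 °C and 5% CO2 with five tenfold doses from 1 to 10,000 nM, in duplicate. ATP luminescence was normalised to vehicle and to a positive control at 10 µM, then fitted with a four-parameter log-logistic model. The IC50 came from these fits.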

[17] = system: MOLM-13
Procedure, shortened: as §2

[18] = system: K-562
Procedure, shortened: as §2

[19] = system: SHI-1
Procedure, shortened: as §2

[20] = system: HEL
Procedure, shortened: as §2

[21] = system: MV4-11
Procedure, shortened: as §2

[22] = system: KCL-22
Procedure, shortened: as §2

[23] = system: NOMO-1
Procedure, shortened: as §2

[24] = system: BV-173
Procedure, shortened: as §2

[25] = system: Mono-Mac-6
Procedure, shortened: as §2

[26] = system: ML-2
Procedure, shortened: as §2

[27] = system: KU-812
Procedure, shortened: as §2

[28] = system: HL-60
Procedure, shortened: as §2

[29] = system: KG-1
Procedure, shortened: as §2

[30] = system: THP-1
Procedure, shortened: as §2

[31] = system: HL-60; assay: area under dose-response curve (viability, 1 nM-10 uM) (fraction (0-1)); higher = more sensitive
Procedure, shortened: (§3)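 HL-60 cells in RPMI 1640 with 10% FBS were rescreened against the full library on 384-well plates at five tenfold concentrations, 1–10,000 nM, in duplicate. Each screen was run with DMSO or 100 nM of one of three metabolic inhibitors, for 72 h at 37 °C, 5% CO2. Viability was read by CellTiter-Glo and normalised to DMSO and 10 μM proteasome-inhibitor wells. Where given, area under the curve came from four-parameter log-logistic fits (drc, PharmacoGx).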

[32] = system: HL-60; assay: cell viability (% survival relative to DMSO control); higher = less cytotoxic
Procedure, shortened: as §3

CCOC(=O)c1ccc(-c2ccc(OC(=O)N(C)Cc3cccc(-c4ccncc4)c3)cc2)cc1 [WWL113]
cell viability [%]
Details | 1 nM | 10 nM | 100 nM | 1000 nM | 10000 nM
[1] | 113 | 104 | 94.8 | 114 | 101
[2] | 120 | 122 | 97.3 | 85.8 | 105
[3] | 121 | 105 | 94 | 92.1 | 87.5
[4] | 114 | 100 | 92 | 95.2 | 108
[5] | 134 | 99.2 | 91.9 | 104 | 99.6
[6] | 129 | 101 | 105 | 103 | 93.3
[7] | 132 | 95.4 | 98.7 | 92.9 | 110
[8] | 104 | 106 | 88.1 | 104 | 105
[9] | 123 | 114 | 102 | 105 | 94.9
[10] | 108 | 112 | 102 | 94.2 | 109
[11] | 104 | 101 | 94.7 | 106 | 106
[12] | 112 | 100 | 105 | 91.6 | 92
[13] | 103 | 91.3 | 89.1 | 114 | 125
[14] | 99.2 | 93.4 | 92.7 | 94.3 | 107
[15] | 114 | 101 | 95.2 | 101 | 102

Details | IC50 (cell viability) [µM]
[16] | > 10
[17] | > 10
[18] | > 10
[19] | > 10
[20] | > 10
[21] | > 10
[22] | > 10
[23] | > 10
[24] | > 10
[25] | > 10
[26] | > 10
[27] | > 10
[28] | > 10
[29] | > 10
[30] | > 10

N#Cc1ccnc(N2C(=O)CC[C@H]2C(=O)N(c2cncc(F)c2)C(C(=O)NC2CC(F)(F)C2)c2ccccc2Cl)c1 (stereo partly drawn) [Ivosidenib]
cell viability [%]
Details | 1 nM | 10 nM | 100 nM | 1000 nM | 10000 nM
[1] | 112 | 101 | 110 | 107 | 81.4
[2] | 111 | 103 | 109 | 96 | 95.1
[3] | 90.3 | 105 | 101 | 99.2 | 93.3
[4] | 99.1 | 104 | 100 | 95.4 | 104
[5] | 89.5 | 104 | 114 | 105 | 121
[6] | 98 | 104 | 107 | 110 | 94.5
[7] | 92.3 | 95.3 | 110 | 99 | 93.3
[8] | 97.8 | 95.6 | 103 | 104 | 90.8
[9] | 93.2 | 95.1 | 95.8 | 104 | 92.2
[10] | 97.8 | 88.9 | 108 | 90.2 | 81.5
[11] | 107 | 85.4 | 105 | 98.1 | 92
[12] | 92.7 | 102 | 107 | 106 | 87.4
[13] | 112 | 100 | 116 | 95.3 | 92.1
[14] | 92.4 | 105 | 106 | 98.2 | 78.2
[15] | 103 | 94.9 | 107 | 102 | 96

Details | IC50 (cell viability) [µM]
[16] | > 10
[17] | > 10
[18] | > 10
[19] | > 10
[20] | > 10
[21] | > 10
[22] | > 10
[23] | > 10
[24] | > 10
[25] | > 10
[26] | > 10
[27] | > 10
[28] | > 10
[29] | > 10
[30] | > 10

CC(C)(O)CNc1nc(Nc2ccnc(C(F)(F)F)c2)nc(-c2cccc(C(F)(F)F)n2)n1 [AG-221]
[31]
Details | area under dose-response curve
co-treatment: AZD3965 100 nM | < 0.0301
co-treatment: DMSO vehicle | < 0.0301
co-treatment: GSK2194069 100 nM | < 0.0301
co-treatment: pictilisib 100 nM | < 0.0301

cell viability [%], [32]
Details | 0.001 µM | 0.01 µM | 0.1 µM | 1 µM | 10 µM
co-treatment: AZD3965 100 nM | 93.5 ± 4.8 | 105 ± 3 | 100 ± 5.2 | 98.6 ± 2.3 | 104 ± 2.8
co-treatment: DMSO vehicle | 96.6 ± 2.4 | 102 ± 7.7 | 101 ± 3.7 | 97.1 ± 1.5 | 103 ± 1.9
co-treatment: GSK2194069 100 nM | 85.8 ± 1.6 | 95.9 ± 8.7 | 100 ± 9.9 | 89 ± 5.2 | 94.2 ± 2.1
co-treatment: pictilisib 100 nM | 89.3 ± 3.3 | 104 ± 3 | 102 ± 8.6 | 94.9 ± 0.96 | 108 ± 5.6

O=C(O)C(=S)Cc1c[nH]c2ccc(F)cc12
[31]
Details | area under dose-response curve
co-treatment: AZD3965 100 nM | < 0.0301
co-treatment: DMSO vehicle | < 0.0301
co-treatment: GSK2194069 100 nM | < 0.0301
co-treatment: pictilisib 100 nM | < 0.0301

cell viability [%], [32]
Details | 0.001 µM | 0.01 µM | 0.1 µM | 1 µM | 10 µM
co-treatment: AZD3965 100 nM | 94 ± 11 | 98.2 ± 4.8 | 106 ± 1.3 | 103 ± 4.1 | 101.9 ± 1
co-treatment: DMSO vehicle | 99.1 ± 1.5 | 101 ± 1.8 | 106 ± 2 | 102 ± 2.4 | 104 ± 3.8
co-treatment: GSK2194069 100 nM | 90.8 ± 11 | 101 ± 2 | 103 ± 2.2 | 104 ± 4 | 104 ± 3.3
co-treatment: pictilisib 100 nM | 91.7 ± 1.3 | 99.9 ± 3.9 | 101.8 ± 0.68 | 101 ± 15 | 97.2 ± 1.9

Reference: the supplement of paper PMC8671470
